One may read the IC50 as the concentration at which inhibition is half-maximal. A high value points to weaker potency in that assay. In general, bioavailability refers to the share of a dose that reaches the circulation, judged against a reference dose that is usually intravenous.

From ChEMBL document CHEMBL1147711, “Tetrazole thioacetanilides: potent non-nucleoside inhibitors of WT HIV reverse transcriptase and its K103N mutant” (Bioorg Med Chem Lett, 2006) come the findings set out here.

For data set [1], the target named is Human immunodeficiency virus type 1 reverse transcriptase (Human immunodeficiency virus 1, UniProt Q72547). The data set is described as follows: Inhibition of HIV1 wild type Reverse Transcriptase.
Data set [2] deals with Human immunodeficiency virus type 1 reverse transcriptase (Human immunodeficiency virus 1), Q72547 [UNDEFINED MUTATION]. Nature of the data set: Ratio of K103N mutant IC50 to wild type Reverse Transcriptase IC50.
Data set [3] deals with Human immunodeficiency virus 1. Nature of the data set: Antiviral activity against HIV1 in presence of 10% FBS. In kind it is functional. The settings on record: read-out: CIC95.
In data set [4] the test system is Human immunodeficiency virus 1. Nature of the data set: Antiviral activity against HIV1 in presence of 50% NHS. In kind it is functional. The settings on record: read-out: CIC95.
Data set [5] can be described thus: Oral bioavailability in rat at 3 mg/kg, iv and po. In kind it is ADME, organism-based. The following applies: in vivo.

Molecule `O=C(CSc1nnnn1-c1cc(Cl)ccc1Cl)Nc1ccccc1[N+](=O)[O-]` showed an IC50 in data set [1] of 4 nM. Further, in data set [2], the Ratio turned out to be 1. Moreover, the IC95 turned out to be 31 nM in data set [3] and 200 nM in data set [4].
In the case of `Cc1ccc(Cl)cc1-n1nnnc1SCC(=O)Nc1ccccc1[N+](=O)[O-]`, the half-inhibitory concentration (IC50) in data set [1] came out at 23 nM. Moreover, the Ratio in data set [2] is 1. Besides, the IC95 in data set [3] was 78 nM; in data set [4] it was 1250 nM.
In turn, `O=C(CSc1nnnn1-c1cccc(Cl)c1Cl)Nc1ccccc1[N+](=O)[O-]` came in with an IC50 in data set [1] of 12 nM. In addition, the Ratio in data set [2] was determined as 1. In addition, the IC95 in data set [3] is 78 nM; in data set [4] it was 125 nM.
In data set [1], `Cc1cc(C)c(-n2nnnc2SCC(=O)Nc2c(Cl)cccc2Cl)c(C)c1` yielded an IC50 of more than 5000 nM. For the same molecule, the IC95 in data set [3] and in data set [4] was more than 5000 nM in each case.
Regarding `NS(=O)(=O)c1ccc(NC(=O)CSc2nnnn2-c2cccc(Cl)c2Cl)c(Cl)c1`, the half-inhibitory concentration (IC50) in data set [1] amounted to 9 nM. For the same molecule, the Ratio in data set [2] was 1. Also, the IC95 in data set [3] came to 62 nM; in data set [4], 250 nM.
Consider `Cc1cc(C)c(-n2nnnc2SCC(=O)Nc2ccc(S(N)(=O)=O)cc2)c(C)c1`, for which the IC50 in data set [1] worked out at 1250 nM. The results for the IC95 in data set [3] and in data set [4] were 1250 nM and more than 5000 nM, respectively.
As for `Cc1cc(C)c(-n2nnnc2SCC(=O)Nc2ccc(S(N)(=O)=O)cc2Cl)c(C)c1`, the concentration for half-maximal inhibition (IC50) in data set [1] was 4 nM. For the same molecule, the Ratio in data set [2] came out at 3. Moreover, the figures for the IC95 in data set [3] and in data set [4] were 16 nM and 62 nM, respectively. This molecule displayed a bioavailability in data set [5] of 33%.
In data set [1], `Cc1cc(C)c(-n2nnnc2SCC(=O)Nc2ccccc2[N+](=O)[O-])c(C)c1` gave an IC50 of 3 nM. In data set [2], the Ratio is 3. The IC95 in data set [3] came to 11 nM; in data set [4], 90 nM. This molecule also had a bioavailability in data set [5] of 0%.
`Cc1cc(C)c(-n2nnnc2SCC(=O)Nc2ccc([N+](=O)[O-])cc2C)c(C)c1`: in data set [1], the IC50 was determined as 165 nM. The Ratio in data set [2] turned out to be 3. For the same molecule, the IC95 in data set [3] was 1250 nM; in data set [4], more than 5000 nM.
Molecule `Cc1cc(C)c(-n2nnnc2SCC(=O)Nc2ccc(OCCCN(C)C)cc2Cl)c(C)c1` registered an IC50 in data set [1] of 13 nM. Moreover, in data set [2], the Ratio was found to be 5. Moreover, the IC95 in data set [3] and in data set [4] was 62 nM each time.
`Cc1cc(C)c(-n2nnnc2SCC(=O)Nc2ccc(S(N)(=O)=O)cc2C)c(C)c1` yielded a concentration for half-maximal inhibition (IC50) in data set [1] of 54 nM. In addition, the Ratio in data set [2] amounted to 1. In addition, the IC95 in data set [3] came out at 50 nM; in data set [4], 580 nM. The molecule also gave a bioavailability in data set [5] of 60%.
With `O=C(CSc1nnnn1-c1c(Cl)cccc1Cl)Nc1ccccc1[N+](=O)[O-]`, the concentration for half-maximal inhibition (IC50) in data set [1] is 4 nM. Besides, in data set [2], the Ratio turned out to be 1. The IC95 in data set [3] was found to be 15 nM; in data set [4], 62 nM.
The molecule `Cc1cc(C)c(-n2nnnc2SCC(=O)Nc2ccccc2Cl)c(C)c1` showed an IC50 in data set [1] of 5 nM. In addition, in data set [2], the Ratio turned out to be 3.
In turn, `Cc1cc(C)c(-n2nnnc2SCC(=O)Nc2ccccc2Br)c(C)c1` came in with an IC50 in data set [1] of 7 nM. Besides, the Ratio in data set [2] is 5. In addition, the IC95 in data set [3] came out at 100 nM; in data set [4], 810 nM.
Taken in the same sequence, the figures for `Cc1ccc(-n2nnnc2SCC(=O)Nc2ccccc2[N+](=O)[O-])c(Br)c1` were 3 nM, 3, 8 nM and 62 nM.
With `Cc1cc(C)c(-n2nnnc2SCC(=O)Nc2ccc(C(N)=O)cc2C)c(C)c1`, in data set [1], half-maximal inhibition (IC50) was put at 55 nM. Further, the Ratio in data set [2] is 1. Moreover, the IC95 in data set [3] was found to be 31 nM; in data set [4], 62 nM.
For the molecule `Cc1cc(C)c(-n2nnnc2SCC(=O)Nc2cccc([N+](=O)[O-])c2)c(C)c1`, in data set [1], the midpoint of inhibition, the IC50, lay at 200 nM. Besides, the IC95 in data set [3] was more than 5000 nM.
For `Cc1cc(C)c(-n2nnnc2SCC(=O)Nc2ccc(C(N)=O)cc2Cl)c(C)c1`, in data set [1], the IC50 was determined as 3 nM. In data set [2], the Ratio stood at 2. Moreover, the figures for the IC95 in data set [3] and in data set [4] were 8 nM and 16 nM, respectively.
Taken in the same sequence, the figures for `O=C(CSc1nnnn1-c1cc(F)ccc1Cl)Nc1ccccc1[N+](=O)[O-]` were 10 nM, 1, 63 nM and 250 nM.
Take `Cc1c(Cl)cccc1-n1nnnc1SCC(=O)Nc1ccccc1[N+](=O)[O-]`: in data set [1], half-maximal inhibition (IC50) required 3 nM. Moreover, in data set [2], the Ratio was 3. Also, the values for the IC95 in data set [3] and in data set [4] were 8 nM and 31 nM, respectively.
Take `Cc1cc(C)c(-n2nnnc2SCC(=O)Nc2ccc(Cl)cc2[N+](=O)[O-])c(C)c1`: inhibition in data set [1] was half-maximal at 4 nM (IC50). Besides, in data set [2], the Ratio turned out to be 3. The IC95 in data set [3] was 31 nM; in data set [4], 400 nM.
`Cc1cc(C)c(-n2nnnc2SCC(=O)Nc2ccc([N+](=O)[O-])cc2)c(C)c1` registered an IC50 in data set [1] of more than 5000 nM. Besides, the IC95 in data set [3] and in data set [4] was more than 5000 nM throughout.
The molecule `O=C(CSc1nnnn1-c1ccc(Cl)c(Cl)c1)Nc1ccccc1[N+](=O)[O-]` yielded an IC50 in data set [1] of 230 nM. Moreover, the Ratio in data set [2] was 2. Also, the IC95 in data set [3] and in data set [4] was more than 5000 nM each time.
In the case of `Cc1cc(C)c(-n2nnnc2SCC(=O)Nc2ccccc2I)c(C)c1`, in data set [1], the IC50 turned out to be 31 nM. Moreover, in data set [2], the Ratio was determined as 3. The IC95 in data set [3] was determined as 312 nM; in data set [4], 1250 nM.
As for `Cc1cccc(-n2nnnc2SCC(=O)Nc2ccccc2[N+](=O)[O-])c1C`, the 50% inhibitory concentration (IC50) in data set [1] turned out to be 18 nM. Moreover, the Ratio in data set [2] worked out at 1. Moreover, the values for the IC95 in data set [3] and in data set [4] were 63 nM and 250 nM, respectively.
`NS(=O)(=O)c1ccc(NC(=O)CSc2nnnn2-c2cc(Cl)ccc2Cl)c(Cl)c1` showed a half-maximal inhibitory concentration (IC50) in data set [1] of 3 nM. Moreover, in data set [2], the Ratio came to 1. For the same molecule, the results for the IC95 in data set [3] and in data set [4] were 16 nM and 125 nM, respectively. In data set [5], the bioavailability was determined as 33%.
In the case of `Cc1cc(C)c(-n2nnnc2SCC(=O)Nc2ccc(C(=O)NCCCN(C)C)cc2Cl)c(C)c1`, the half-maximal inhibitory concentration (IC50) in data set [1] stood at 5 nM. Further, in data set [2], the Ratio is 2. For the same molecule, the IC95 in data set [3] turned out to be 8 nM; in data set [4], 16 nM.
As to `Cc1cc(C)c(-n2nnnc2SCC(=O)Nc2ccc([N+](=O)[O-])cc2Cl)c(C)c1`, in data set [1], the concentration for half-maximal inhibition (IC50) stood at 22 nM. The Ratio in data set [2] turned out to be 5. The IC95 in data set [3] is 78 nM; in data set [4] it was 1250 nM.
